The results in this text go back to patent US9963467B2, “Boronic acid derivatives and therapeutic uses thereof” (Rempex Pharmaceuticals, Inc., priority 2014, dated 2018).

One assay has as its system KP1086 (OXA-48). The experiment in a line: Biapenem potentiation (MPC@1), KP1086. The note with it: BLI with biapenem at 1 μg/mL.
Assay [1] deals with KP1005 (CTX-M-14). The experiment in a line: Aztreonam potentiation (MPC@4), KP1005. It is filed as cell-based. The note with it: BLI with aztreonam at 4 μg/mL.
The test system of assay [2] is ec308 (SHV-5). Description: Aztreonam potentiation (MPC@4), ec308. The assay is classed as cell-based. The note with it: BLI with aztreonam at 4 μg/mL.
Assay [3] has as its system ec302 (TEM-10). Description: Tigemonam potentiation (MPC@4), ec302. The assay is classed as cell-based.
In assay [4] the test system is KP1010 (SHV-12). The experiment in a line: Aztreonam potentiation (MPC@4), KP1010. It is filed as cell-based.
Assay [5] concerns KP1009 (CTX-M-15). Description: Tigemonam potentiation (MPC@4), KP1009. It is filed as cell-based. The conditions noted are these: BLI with tigemonam at 4 μg/mL.
Assay [6] relates to ec308 (SHV-5). The experiment in a line: Tigemonam potentiation (MPC@4), ec308. It is filed as cell-based.
Assay [7] has as its system ECL1002. The experiment in a line: Aztreonam potentiation (MPC@4), ECL1002. It is filed as cell-based. The note with it: BLI with aztreonam at 4 μg/mL.
Assay [8] deals with EC1010 (CMY-6). Description: organism not typed. The assay is classed as cell-based.
Another assay concerns the target Pa AmpC (Pseudomonas aeruginosa, UniProt P24735). Description: Ki, nitrocefin cleavage by purified enzyme, Pa AmpC. It is filed as biochemical. The conditions noted are these: nitrocefin reporter substrate; read-out: Ki (Pa AmpC, NCF). The gist of the method: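 Preincubation 10 min RT, purified enzyme with inhibitor series in reaction buffer; reporter nitrocefin; kinetic A490, 10-sec intervals, 10 min; Ki calculated.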

The next assay relates to KP1004 (KPC-2). Description: Biapenem potentiation (MPC@1), KP1004. The note with it: BLI with biapenem at 1 μg/mL.
Assay [9] relates to KP1005 (CTX-M-14). Description: Tigemonam potentiation (MPC@4), KP1005. It is filed as cell-based. The note with it: BLI with tigemonam at 4 μg/mL.
The subject of assay [10] is KP1010 (SHV-12). Description: Tigemonam potentiation (MPC@4), KP1010. The assay is classed as cell-based.
In assay [11] the test system is ECL1002. Description: Tigemonam potentiation (MPC@4), ECL1002. The assay is classed as cell-based. The note with it: BLI with tigemonam at 4 μg/mL.
Assay [12] concerns KP1009 (CTX-M-15). Description: organism not typed. It is filed as cell-based.
Assay [13] has as its system ec302 (TEM-10). The experiment in a line: Aztreonam potentiation (MPC@4), ec302. The assay is classed as cell-based. The note with it: BLI with aztreonam at 4 μg/mL.
A further assay has as its target P99 (Enterobacter cloacae, UniProt P05364). The experiment in a line: Ki, nitrocefin cleavage by purified enzyme, P99. The conditions noted are these: nitrocefin reporter substrate; read-out: Ki (P99, NCF). The assay is classed as biochemical. The gist of the method: (§1)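 Purified enzyme was preincubated with a range of inhibitor concentrations in reaction buffer for 10 min at room temperature. Nitrocefin was then added and its cleavage followed at 490 nm every 10 sec for 10 min.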

The target in the next assay is SHV-12 (Klebsiella pneumoniae, UniProt P0AD64, E235K/G234S/L31Q). Description: Ki, nitrocefin cleavage by purified enzyme, SHV-12. It is filed as biochemical. The conditions noted are these: nitrocefin reporter substrate; read-out: Ki (SHV-12, NCF). The gist of the method: as §1
SHV-12, sequence (P0AD64 22-286 L31Q/G234S/E235K): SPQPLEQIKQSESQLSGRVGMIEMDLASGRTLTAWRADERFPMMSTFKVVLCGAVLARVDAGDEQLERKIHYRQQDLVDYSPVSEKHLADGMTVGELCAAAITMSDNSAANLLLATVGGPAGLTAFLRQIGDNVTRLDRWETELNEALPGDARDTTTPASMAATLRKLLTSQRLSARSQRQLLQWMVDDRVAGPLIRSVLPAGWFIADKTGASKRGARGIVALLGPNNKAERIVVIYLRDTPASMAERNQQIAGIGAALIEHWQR
The target of the next assay is KPC-2 (Klebsiella pneumoniae, UniProt Q9F663). Description: Ki, nitrocefin cleavage by purified enzyme, KPC-2. The assay is classed as biochemical. The note with it: nitrocefin reporter substrate; read-out: Ki (KPC-2, NCF). The essentials:
as §1

A further assay deals with CTX-M-14 (Escherichia coli, UniProt Q9L5C7). The experiment in a line: Ki, nitrocefin cleavage by purified enzyme, CTX-M-14. It is filed as biochemical. The note with it: nitrocefin reporter substrate; read-out: Ki (CTX-M-14, NCF). The essentials: as §1
CTX-M-14, sequence (Q9L5C7 29-291): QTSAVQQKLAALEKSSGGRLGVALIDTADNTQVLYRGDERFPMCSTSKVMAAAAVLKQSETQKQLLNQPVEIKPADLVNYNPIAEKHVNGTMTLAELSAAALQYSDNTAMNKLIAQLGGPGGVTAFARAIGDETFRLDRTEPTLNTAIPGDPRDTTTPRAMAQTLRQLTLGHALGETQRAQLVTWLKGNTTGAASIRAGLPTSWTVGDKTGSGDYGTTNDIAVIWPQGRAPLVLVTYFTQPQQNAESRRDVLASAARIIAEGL
Assay [14] concerns EC1010 (CMY-6). Description: Tigemonam potentiation (MPC@4), EC1010. It is filed as cell-based. The conditions noted are these: BLI with tigemonam at 4 μg/mL.
In the next assay the target is OXA-48 (Klebsiella pneumoniae, UniProt Q6XEC0). Description: Ki, nitrocefin cleavage by purified enzyme, OXA-48. It is filed as biochemical. The note with it: nitrocefin reporter substrate; read-out: Ki (OXA-48, NCF). The gist of the method: as §1
OXA-48, sequence (Q6XEC0 23-265, looked up, species assumed): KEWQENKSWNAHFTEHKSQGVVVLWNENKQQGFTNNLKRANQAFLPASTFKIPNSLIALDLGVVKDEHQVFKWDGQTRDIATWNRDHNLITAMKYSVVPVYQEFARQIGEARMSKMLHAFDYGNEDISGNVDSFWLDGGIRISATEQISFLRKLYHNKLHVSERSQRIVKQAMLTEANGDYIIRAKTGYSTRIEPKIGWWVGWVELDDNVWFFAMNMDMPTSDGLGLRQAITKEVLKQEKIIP

Pa AmpC, sequence (P24735 27-397): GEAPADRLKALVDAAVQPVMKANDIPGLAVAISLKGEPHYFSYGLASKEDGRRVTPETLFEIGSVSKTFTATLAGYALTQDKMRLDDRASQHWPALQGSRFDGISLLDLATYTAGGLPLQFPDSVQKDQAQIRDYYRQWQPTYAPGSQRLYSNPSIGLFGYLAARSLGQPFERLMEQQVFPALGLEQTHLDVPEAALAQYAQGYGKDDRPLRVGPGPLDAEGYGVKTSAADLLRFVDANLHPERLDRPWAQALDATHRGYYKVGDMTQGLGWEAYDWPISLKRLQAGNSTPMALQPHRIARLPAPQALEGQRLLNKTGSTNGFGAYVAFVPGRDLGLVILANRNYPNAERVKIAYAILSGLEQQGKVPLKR
P99, sequence (P05364 21-381): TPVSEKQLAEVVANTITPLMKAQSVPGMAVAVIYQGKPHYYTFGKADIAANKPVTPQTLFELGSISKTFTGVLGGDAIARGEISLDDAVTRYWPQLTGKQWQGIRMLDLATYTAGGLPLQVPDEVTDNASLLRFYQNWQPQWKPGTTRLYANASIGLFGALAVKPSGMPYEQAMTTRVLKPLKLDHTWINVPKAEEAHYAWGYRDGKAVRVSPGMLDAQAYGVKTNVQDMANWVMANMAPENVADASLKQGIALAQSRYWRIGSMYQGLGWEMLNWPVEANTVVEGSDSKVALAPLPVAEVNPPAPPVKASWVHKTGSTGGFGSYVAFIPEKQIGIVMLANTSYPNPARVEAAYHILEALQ
KPC-2, sequence (Q9F663 25-293, looked up, species assumed): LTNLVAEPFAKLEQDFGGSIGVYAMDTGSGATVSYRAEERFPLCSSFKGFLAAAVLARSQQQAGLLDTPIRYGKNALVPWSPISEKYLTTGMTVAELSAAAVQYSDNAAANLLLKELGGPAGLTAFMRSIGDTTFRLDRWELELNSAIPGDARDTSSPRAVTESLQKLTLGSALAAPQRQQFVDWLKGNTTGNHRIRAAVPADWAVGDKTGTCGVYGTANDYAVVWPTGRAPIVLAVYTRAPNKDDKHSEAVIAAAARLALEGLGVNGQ

Regarding `CSCC(=O)N[C@H]1Cc2cccc(C(=O)O)c2OB1O` [A, reference compound], in the assay on KP1086 (OXA-48), the “BPM MPC1 OXA-48 KP1086” value was “Y (MIC of 1 μg/mL to 10 μg/mL)”. Also, the “AZT MPC4 CTX-M-14 KP1005” value with KP1005 (CTX-M-14) [1] is given as “X (MIC of less than 1 ng/mL)”. Further, in the assay on ec308 (SHV-5) [2], the “AZT MPC4 SHV-5 ec308” value is “X (MIC of less than 1 ng/mL)”. Also, the “TIG MPC4 TEM-10 ec302” value with ec302 (TEM-10) [3] is recorded as “Y (key: X: MIC of less than 1 ng/mL; Y: MIC of 1 μg/mL to 10 μg/mL; Z: MIC of greater than 10 μg/mL)”. Also, in the assay on KP1010 (SHV-12) [4], the “AZT MPC4 SHV-12 KP1010” value was “X (key: X: MIC of less than 1 ng/mL; Y: MIC of 1 μg/mL to 10 μg/mL; Z: MIC of greater than 10 μg/mL)”. Further, the “TIG MPC4 CTX-M-15 KP1009” value in the assay with KP1009 (CTX-M-15) [5] is reported as “X (MIC of less than 1 μg/mL)”. Moreover, the “TIG MPC4 SHV-5 ec308” value with ec308 (SHV-5) [6] is on record as “X (key: X: MIC of less than 1 μg/mL; Y: MIC of 1 μg/mL to 10 μg/mL; Z: MIC of greater than 10 μg/mL)”. Further, the “AZT MPC4 ECL1002” value in the assay with ECL1002 [7] is recorded as “X (MIC of less than 1 ng/mL)”. Besides, in the assay on EC1010 (CMY-6) [8], the “AZT MPC4 CMY-6 EC1010” value was “X (key: X: MIC of less than 1 ng/mL; Y: MIC of 1 μg/mL to 10 μg/mL; Z: MIC of greater than 10 μg/mL)”. For the same compound, the Ki (as a rule, a dissociation constant, usually derived from enzyme kinetics or from competition with a known ligand) on Pa AmpC was 1 to 10 nM. For the same compound, the “BPM MPC1 KP1004 KPC-2” value in the assay on KP1004 (KPC-2) is on record as “X (MIC of less than 1 μg/mL)”. Moreover, the “TIG MPC4 CTX-M-14 KP1005” value in the assay on KP1005 (CTX-M-14) [9] is on record as “Y (MIC of 1 μg/mL to 10 μg/mL)”. Also, in the assay on KP1010 (SHV-12) [10], the “TIG MPC4 SHV-12 KP1010” value is “X (key: X: MIC of less than 1 μg/mL; Y: MIC of 1 μg/mL to 10 μg/mL; Z: MIC of greater than 10 μg/mL)”. In addition, the “TIG MPC4 ECL1002” value in the assay with ECL1002 [11] is on record as “X (MIC of less than 1 μg/mL)”. The “AZT MPC4 CTX-M-15 KP1009” value with KP1009 (CTX-M-15) [12] is recorded as “X (key: X: MIC of less than 1 ng/mL; Y: MIC of 1 μg/mL to 10 μg/mL; Z: MIC of greater than 10 μg/mL)”.

Take `O=CN[C@H]1Cc2ccc(F)c(C(=O)O)c2OB1O` [Compound 6, (R)-7-fluoro-3-formamido-2-hydroxy-3,4-dihydro-2H-benzo[e][1,2]oxaborinine-8-carboxylic acid]: the “AZT MPC4 TEM-10 ec302” value in the assay on ec302 (TEM-10) [13] is “Y (MIC of 1 μg/mL to 10 μg/mL)”. Further, the “BPM MPC1 OXA-48 KP1086” value with KP1086 (OXA-48) is reported as “Y (MIC of 1 μg/mL to 10 μg/mL)”. In the assay on KP1005 (CTX-M-14) [1], the “AZT MPC4 CTX-M-14 KP1005” value is given as “Y (MIC of 1 μg/mL to 10 μg/mL)”. Besides, the “AZT MPC4 SHV-5 ec308” value in the assay with ec308 (SHV-5) [2] was “Y (MIC of 1 μg/mL to 10 μg/mL)”. The Ki on P99 is greater than 10 nM; at SHV-12, less than 1 nM; on KPC-2 it was greater than 10 nM; on CTX-M-14, less than 1 nM; on Pa AmpC, greater than 10 nM; at OXA-48, 1 to 10 nM. Further, the “TIG MPC4 TEM-10 ec302” value in the assay with ec302 (TEM-10) [3] is listed as “Z (key: X: MIC of less than 1 ng/mL; Y: MIC of 1 μg/mL to 10 μg/mL; Z: MIC of greater than 10 μg/mL)”. In addition, the “TIG MPC4 CMY-6 EC1010” value in the assay with EC1010 (CMY-6) [14] is on record as “X (MIC of less than 1 μg/mL)”. In the assay on KP1009 (CTX-M-15) [5], the “TIG MPC4 CTX-M-15 KP1009” value is on record as “Y (MIC of 1 μg/mL to 10 μg/mL)”. The “TIG MPC4 SHV-5 ec308” value in the assay with ec308 (SHV-5) [6] is recorded as “Y (key: X: MIC of less than 1 ng/mL; Y: MIC of 1 μg/mL to 10 μg/mL; Z: MIC of greater than 10 μg/mL)”. Also, in the assay on ECL1002 [7], the “AZT MPC4 ECL1002” value is on record as “Y (MIC of 1 μg/mL to 10 μg/mL)”. Moreover, the “AZT MPC4 CMY-6 EC1010” value in the assay with EC1010 (CMY-6) [8] is “Y (key: X: MIC of less than 1 ng/mL; Y: MIC of 1 μg/mL to 10 μg/mL; Z: MIC of greater than 10 μg/mL)”. Further, the “BPM MPC1 KP1004 KPC-2” value in the assay with KP1004 (KPC-2) is given as “X (MIC of less than 1 μg/mL)”. For the same compound, the “TIG MPC4 CTX-M-14 KP1005” value in the assay with KP1005 (CTX-M-14) [9] is “Y (MIC of 1 μg/mL to 10 μg/mL)”. Further, the “TIG MPC4 SHV-12 KP1010” value with KP1010 (SHV-12) [10] is “Y (key: X: MIC of less than 1 ng/mL; Y: MIC of 1 μg/mL to 10 μg/mL; Z: MIC of greater than 10 μg/mL)”. The “TIG MPC4 ECL1002” value with ECL1002 [11] is “X (MIC of less than 1 μg/mL)”. Further, the “AZT MPC4 CTX-M-15 KP1009” value in the assay on KP1009 (CTX-M-15) [12] was “Y (key: X: MIC of less than 1 ng/mL; Y: MIC of 1 μg/mL to 10 μg/mL; Z: MIC of greater than 10 μg/mL)”.
